Source: patent US6323219A, “Methods for treating immunomediated inflammatory disorders” (Ortho-McNeil Pharmaceutical, Inc., priority 1999, dated 2001)
Entries after “also recorded” stand apart in the source; their conditions may differ.

Columns and labels:
[1] = in vivo; design: species or system male rats (Long Evans); details: rat, iv
Description: Since the compounds of the formula (l) are also potent thrombin inhibitors (see U.S. Pat. No. 5,523,308), an ex vivo thrombin assay was conducted to determine the duration of action of the compounds of Formula I. For this i.v. assay male rats (Long Evans, 350-500 g) were implanted with a teflon cannulae via the femoral artery while under anesthesia (pentobarbital i.p., 35 mg/kg). After surgery, the animals were individually housed in standard cages, fed with rat chow (Hanlan, #8604) and continuously infused with physiological saline to maintain arterial patency, (0.5 mL/h, intra arterial) using a spring-shielded swiveling tether connected to an infusion system. The animals were allowed to recover for at least 24 h after the surgical procedure.
A sample of blood was drawn from the animals 15 min before dosing with the inhibitor (0.25 mL blood is drawn into a syringe containing 0.025 mL of Sigma sodium citrate). The test compound was dispersed in water and delivered to the animal (0.25 mL) via the femoral vein. The inhibitor was given at a concentration (mg/mL) which produced 80% inhibition of VO in a plasma sample at 5 min after infusion. Blood was drawn from the arterial line (blood:sodium citrate, 0.25/0.025 mL ) at regular intervals after dosing (5, 10, 15, 30, 60 and 120 min) and placed in a centrifuge tube. A plasma sample was obtained by centrifuging the blood at 10,000 rpm for 5 min. This sample is analyzed for thrombin inhibition using the chromogenic assay, described below.
The rate of increase in absorbance at 405 nm of synthetic peptides (50 μM Spectozyme® TH (H-D-HHT-Ala-Arg-pNA-2AcOH), American Diagnostica) is measured in the presence of plasma with a microplate reader (Molecular Devices) at 37° C. using an aqueous buffer (10 mM Tris, 10 mM Hepes, 150 mM NaCl, 0.1% PEG; pH 7.4). The buffer was added to the plasma samples (1:1) dilution prior to delivery to the microplate (1:5 and 1:50 for final plasma dilutions of 1:10 and 1:100 respectively) followed by the enzyme (1 nM human α thrombin). Datum was collected over a 30 min period and the initial rate of substrate hydrolysis (V0 (mOD/min)) was calculated with an analysis program (Softmax, Molecular Devices).
The time to half plasma elimination (t 1/2) was calculated from the slope of VO vs. time, using the following equation: […]. These datum are presented in Table L. In Table L, the compound # corresponds to the compound number described in U.S. Pat. No. 5,523,308.

[2] = target: T1, Human Skin Chymase (Homo sapiens, UniProt P23946); assay: Chymase 10 μM Screen Method; assay type: biochemical; details: 10 μM, room temperature, 5.0 nM enzyme, 3 hours; read-out: Chymase % Inhibition (10 μM)
T1 construct: purchased Cortex Biochem CP1129; host or cells: human skin
T1 sequence (P23946 22-247): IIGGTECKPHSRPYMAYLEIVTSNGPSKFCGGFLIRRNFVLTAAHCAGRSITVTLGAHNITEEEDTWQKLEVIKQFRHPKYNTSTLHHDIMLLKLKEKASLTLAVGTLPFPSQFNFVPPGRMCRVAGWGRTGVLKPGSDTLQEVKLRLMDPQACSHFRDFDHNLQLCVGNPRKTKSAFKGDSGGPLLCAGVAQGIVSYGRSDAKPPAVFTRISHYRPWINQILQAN
Description: The enzyme reaction is started by the addition of enzyme ([E]: 1.0 nM human Lung Tryptase; Cortex Biochem CP3033). Data is collected over a period of 30 min. and the initial rate of substrate hydrolysis (Vo (mOD/min)) is calculated. Inhibition is calculated by comparing to wells containing no inhibitor (vehicle) and IC50 s are determined using a four parameter fit logistics model. […] Data is collected over a period of 30 min. and the initial rate of substrate hydrolysis (Vo (mOD/min)) is calculated. Inhibition is calculated by comparing to wells containing no inhibitor (vehicle) and IC50 s are determined using a four parameter fit logistics model. […] The enzyme reaction is started by the addition of enzyme ([E]: 5.0 nM Human Skin Chymase; Cortex Biochem CP1129), and 3 hours following that addition data is collected. After subtracting background (no enzyme addition), inhibition is calculated by comparing to wells containing no inhibitor (vehicle).

[3] = target: human Lung Tryptase; assay: Tryptase IC50 Method; assay type: biochemical; details: 37° C., 1.0 nM enzyme, 500 μM substrate
Description: The enzyme reaction is started by the addition of enzyme ([E]: 1.0 nM human Lung Tryptase; Cortex Biochem CP3033). Data is collected over a period of 30 min. and the initial rate of substrate hydrolysis (Vo (mOD/min)) is calculated. Inhibition is calculated by comparing to wells containing no inhibitor (vehicle) and IC50 s are determined using a four parameter fit logistics model. […] The enzyme reaction is started by the addition of enzyme ([E]: 10.0 nM Human Skin Chymase; Cortex Biochem CPl 129). Data is collected over a period of 30 min. and the initial rate of substrate hydrolysis (Vo (mOD/min)) is calculated. Inhibition is calculated by comparing to wells containing no inhibitor (vehicle) and IC50 s are determined using a four parameter fit logistics model. Chymase 10 μM Screen Method: The optical density at 405 nm due to hydrolysis of synthetic chromogenic peptide substrates ([S]: 500 μM Suc-Ala-Ala-Pro-Phe-pNA; Bachem L-1400) is measured in the presence and absence of inhibitor compounds of formula (I) with a microplate reader at room temperature. The enzyme reaction is started by the addition of enzyme ([E]: 5.0 nM Human Skin Chymase; Cortex Biochem CP1129), and 3 hours following that addition data is collected. After subtracting background (no enzyme addition), inhibition is calculated by comparing to wells containing no inhibitor (vehicle).

[4] = tested on: MelanoDerm human epidermal equivalents; details: MelanoDerm equivalents are known to respond; cited from earlier work
[5] = tested on: human primary melanocytes; assay: Pigmentation of primary melanocyte cultures; assay type: cell-based; details: for level of pigmentation, human primary melanocytes: melanocytes alone
[6] = tested on: S91 cells; assay: Pigmentation of choleratoxin-induced S91 cells; assay type: cell-based, mouse
Description: Indeed, the level of pigmentation of human primary melanocytes or choleratoxin-induced S91 cells, which is reduced by hydroquinone and benzaldehyde, was not affected by Compound I.

[7] = tested on: MelanoDerm human epidermal equivalents; assay: Pigmentation of MelanoDerm epidermal equivalents (DOPA, H&E or F&M staining, image analysis); assay type: cell-based; details: for pigmentation/melanogenesis in epidermal equivalents: MelanoDerm, three days of treatment, stained on fourth day, FIG. 1B, FIG. 2, FIG. 3
[8] = tested on: Yucatan swine skin; assay: Yucatan swine skin pigmentation, topical, visual/chromameter/histology
Description: Each compound was applied to two sites on the pig twice daily, five days per week for eight weeks. After eight weeks of treatment, chromameter measurements were taken.
Two sites per concentration were placed on opposite sides of the swine dorsum. Chromameter measurements were taken before treatment started and every two weeks thereafter. Pictures were taken periodically and at the end of the experiment.

[9] = tested on: Co-cultures (no K-M contact); assay: Pigmentation of keratinocyte-melanocyte co-cultures without K-M contact; assay type: cell-based, human; details: Table D; three days, DOPA stained on fourth day
Description: Since PAR-2 is not expressed in melanocytes, we tested the possible requirement of keratinocyte-melanocyte interactions for the depigmenting effect of Compound I. Primary melanocyte cultures were compared to identical cultures plated under epidermal equivalents (EpiDerm, lacking melanocytes) to create a co-culture with no contact between keratinocytes and melanocytes. These were also compared to MelanoDerm equivalents, where melanocytes are present in the basal layer of the equivalent. Cultures were treated for three days with Compound I, with the PAR-2 agonist SLIGRL, and with the TR agonist TFLLRNPNDK, as set forth in Table D, and DOPA stained on the fourth day. In Table D, keratinocytes are indicated by "K", melanocytes are indicated by "M" and lack of keratinocyte-melanocyte contact is indicated as "no K-M contact". […] In MelanoDerm equivalents, compound I reduced and SLIGRL induced pigmentation, while TFLLRNPNDK had no effect.

[10] = Table D, three days, DOPA stained on fourth day

half-life [1] [min]	inhibition at 10 µM [2] [%]	IC50 [3] [nM]	Molecule	also measured
6	–	–	N=C(N)NCCC[C@H](NC(=O)[C@@H]1CCCN1C(=O)CC(c1ccccc1)c1ccccc1)C(=O)c1nc2ccccc2s1 [Compound 3]	–
16	–	–	CN[C@H](Cc1ccccc1)C(=O)N1CCC[C@H]1C(=O)N[C@@H](CCCNC(=N)N)C(=O)c1nccs1 [Compound 4]	–
18	–	–	CN[C@H](Cc1ccccc1)C(=O)N1CCC[C@H]1C(=O)N[C@@H](CCCN=C(N)N)C(=O)c1nc2ccccc2o1 [Compound 5]	–
43	2	1.7	CN[C@H](Cc1ccccc1)C(=O)N1CCC[C@H]1C(=O)N[C@@H](CCCNC(=N)N)C(=O)c1nc2ccc(C(=O)OC)cc2s1 [Compound 12]	–
8	3	11.1	CN[C@H](Cc1ccccc1)C(=O)N1CCC[C@H]1C(=O)N[C@@H](CCCNC(=N)N)C(=O)c1nc2ccc(F)cc2s1 [Compound 17]	–
6	6	2.7	CN[C@H](Cc1c(F)c(F)c(F)c(F)c1F)C(=O)N1CCC[C@H]1C(=O)N[C@@H](CCCNC(=N)N)C(=O)c1nc2ccccc2s1 [Compound 30]	–
–	0	828	N=C(N)NCCC[C@H](NC(=O)C1CCCC1)C(=O)c1nc2ccccc2s1 [Compound 31]	–
11	4	15.1	CN[C@H](Cc1ccccc1)C(=O)N1CCC[C@H]1C(=O)N[C@@H](CCCNC(=N)N)C(=O)c1nc2ccccc2[nH]1 [Compound 35]	–
–	37	> 10000	CCCC[C@H](NC(=O)[C@@H]1CCCN1C(=O)[C@@H](Cc1ccccc1)NC)C(=O)c1nc2ccccc2s1 [Compound 39]	–
8	4	33.7	CN[C@H](Cc1ccccc1)C(=O)N1CCC[C@H]1C(=O)N[C@@H](CCCNC(=N)N)C(=O)c1nc2c(ccc3ccccc32)s1 [Compound 52]	–
–	5	–	CN[C@H](Cc1ccccc1)C(=O)N1CCC[C@H]1C(=O)N[C@@H](CCCOC)C(=O)c1nc2ccccc2s1 [Compound 53]	–
–	–	–	O=Cc1ccccc1 [benzaldehyde]	pigmentation of epidermal equivalents (known response to whitening agents) [4]: reducing pigmentation; level of pigmentation, human primary melanocytes [5]: reduced; level of pigmentation, choleratoxin-induced S91 cells [6]: reduced
–	–	–	Oc1ccc(O)cc1 [hydroquinone]	pigmentation of epidermal equivalents (known response to whitening agents) [4]: reducing pigmentation; level of pigmentation, human primary melanocytes [5]: reduced; level of pigmentation, choleratoxin-induced S91 cells [6]: reduced
–	–	–	Hirudin	pigmentation/melanogenesis in epidermal equivalents [7]: no effect on pigmentation
–	–	–	SFLLRN [reference compound]	effect on skin pigmentation ([8]; 10 μM, twice daily, five days per week, eight weeks): no significant effects; pigmentation/melanogenesis in epidermal equivalents [7]: trend of lightening or reducing pigmentation
–	–	–	TFLLRNPNDK [reference compound]	effect on pigmentation, Co-cultures (no K-M contact) [9]: no effect; effect on pigmentation, Melanocytes (no K) [5, 10]: no effect; pigmentation/melanogenesis in epidermal equivalents [7]: no effect on pigmentation; effect on pigmentation, MelanoDerm (K-M contact) [7, 10]: no effect
–	–	–	STI: soybean trypsin inhibitor, available from Sigma (protein, UniProt P01070 25-205, looked up) Trypsin inhibitor A: DFVLDNEGNPLENGGTYYILSDITAFGGIRAAPTGNERCPLTVVQSRNELDKGIGTIISSPYRIRFIAEGHPLSLKFDSFAVIMLCVGIPTEWSVVEDLPEGPAVKIGENKDAMDGWFRLERVSDDEFNNYKLVFCPQQAEDDKCGDIGISIDHDDGTRRLVVSKNKPLVVQFQKLDKESL	visual lightness of treated sites versus surrounding skin ([8]; twice a day, five days a week, at seven weeks): visually lighter than the surrounding skin; pigmentation/melanogenesis in epidermal equivalents [7]: very effective in inhibiting melanogenesis; also recorded: reduces pigmentation
–	–	–	Trypsin: Activates TR and PAR-2 (protein, UniProt P00760 24-246, looked up) Serine protease 1: IVGGYTCGANTVPYQVSLNSGYHFCGGSLINSQWVVSAAHCYKSGIQVRLGEDNINVVEGNEQFISASKSIVHPSYNSNTLNNDIMLIKLKSAASLNSRVASISLPTSCASAGTQCLISGWGNTKSSGTSYPDVLKCLKAPILSDSSCKSAYPGQITSNMFCAGYLEGGKDSCQGDSGGPVVCSGKLQGIVSWGSGCAQKNKPGVYTKVCNYVSWIKQTIASN	pigmentation, dose-response ([7]; increasing concentrations, SLIGRL 0, 10 and 50 μM, Compound I 0.1 μM to 1 μM, FIG. 4A): has the same effect
